Results published in ChEMBL document CHEMBL1201862, “PubChem BioAssay data set” (2004).
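Five compound concentrations were applied to cells in 96-well plates for 48 hours; endpoints were derived by simple linear interpolation of the resulting dose-response curve. Abbreviation: GI50, concentration required for 50% inhibition of growth.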 Calls of active or inactive are those of the source. Rule as the data show it: active = GI50 up to about 1.1 µM and inactive = higher.

How the values were obtained:
Assay in all cases: NCI-60 cell line screen, 48 h
[1] = tested on: Malme-3M
[2] = tested on: U-251
[3] = tested on: CAKI-1
[4] = tested on: OVCAR-8
[5] = tested on: COLO 205
[6] = tested on: NCI-H226
[7] = tested on: Hs-578T
[8] = tested on: BT-549
[9] = tested on: HT-29
[10] = tested on: 786-0
[11] = tested on: A498
[12] = tested on: KM12
[13] = tested on: M14
[14] = tested on: SF-539
[15] = tested on: MDA-MB-435
[16] = tested on: LOX IMVI
[17] = tested on: DU-145
[18] = tested on: SW-620
[19] = tested on: IGROV-1
[20] = tested on: SK-MEL-28
[21] = tested on: SF-268
[22] = tested on: RPMI-8226
[23] = tested on: EKVX
[24] = tested on: OVCAR-3
[25] = tested on: UO-31
[26] = tested on: MCF7
[27] = tested on: HCC 2998
[28] = tested on: SF-295
[29] = tested on: HCT-15
[30] = tested on: T47D
[31] = tested on: SNB-19
[32] = tested on: SK-MEL-2
[33] = tested on: SR
[34] = tested on: HOP-62
[35] = tested on: HOP-92
[36] = tested on: OVCAR-4
[37] = tested on: HCT-116
[38] = tested on: RXF 393
[39] = tested on: A549
[40] = tested on: SK-MEL-5
[41] = tested on: MDA-MB-231
[42] = tested on: K562
[43] = tested on: MDA-N
[44] = tested on: ACHN
[45] = tested on: UACC-62
[46] = tested on: NCI/ADR-RES
[47] = tested on: CCRF-CEM
[48] = tested on: SK-OV-3
[49] = tested on: UACC-257
[50] = tested on: NCI-H460
[51] = tested on: OVCAR-5
[52] = tested on: NCI-H23
[53] = tested on: PC-3
[54] = tested on: NCI-H522
[55] = tested on: MOLT-4
[56] = tested on: SNB-75
[57] = tested on: TK-10
[58] = tested on: HL-60
[59] = tested on: SN12C
[60] = tested on: DMS-273
[61] = tested on: KM-20L2
[62] = tested on: DMS-114
[63] = tested on: DLD-1
[64] = tested on: LXFL 529
[65] = tested on: M19-MEL

`C=C1C(=O)OC2CC1C(O)C/C(C)=C/CC/C(C)=C/C(O)CC2C` (stereo not drawn) was tested, and the GI50 [1] was 2370 nM (inactive), the GI50 [2] was 4680 nM (inactive) and the GI50 [3] was 2750 nM (inactive). For the same compound, the GI50 [4] was 1890 nM (inactive), the GI50 [5] was 1490 nM (inactive) and the GI50 [6] was 9330 nM (inactive). For the same compound, the GI50 [7] was 3030 nM (inactive), the GI50 [8] was 2310 nM (inactive) and the GI50 [9] was 1780 nM (inactive). The GI50 [10] was 1530 nM (inactive), the GI50 [11] was 3240 nM (inactive) and the GI50 [12] was 5210 nM (inactive). For the same compound, the GI50 [13] was 2510 nM (inactive), the GI50 [14] was 2350 nM (inactive) and the GI50 [15] was 2850 nM (inactive). For the same compound, the GI50 [16] was 1290 nM (inactive), the GI50 [17] was 2200 nM (inactive) and the GI50 [18] was 2000 nM (inactive). The GI50 [19] was 2750 nM (inactive), the GI50 [20] was 4900 nM (inactive) and the GI50 [21] was 2790 nM (inactive). The GI50 [22] was 1320 nM (inactive), the GI50 [23] was 1870 nM (inactive) and the GI50 [24] was 2700 nM (inactive). For the same compound, the GI50 [25] was 2330 nM (inactive), the GI50 [26] was 2060 nM (inactive) and the GI50 [27] was 1830 nM (inactive). For the same compound, the GI50 [28] was 13300 nM (inactive), the GI50 [29] was 1730 nM and the GI50 [30] was 824 nM (active). For the same compound, the GI50 [31] was 5470 nM (inactive), the GI50 [32] was 3400 nM (inactive) and the GI50 [33] was 520 nM (active). For the same compound, the GI50 [34] was 11400 nM (inactive), the GI50 [35] was 1260 nM (inactive) and the GI50 [36] was 2450 nM (inactive). For the same compound, the GI50 [37] was 1450 nM (inactive), the GI50 [38] was 1010 nM (active) and the GI50 [39] was 12400 nM (inactive). The GI50 [40] was 4190 nM (inactive), the GI50 [41] was 3520 nM (inactive) and the GI50 [42] was 1000 nM (active). For the same compound, the GI50 [43] was 1190 nM (inactive), the GI50 [44] was 1650 nM (inactive) and the GI50 [45] was 2340 nM (inactive). The GI50 [46] was 2000 nM (inactive), the GI50 [47] was 203 nM (active) and the GI50 [48] was 12700 nM (inactive). The GI50 [49] was 2400 nM (inactive), the GI50 [50] was 2880 nM (inactive) and the GI50 [51] was 4970 nM (inactive). For the same compound, the GI50 [52] was 2440 nM (inactive), the GI50 [53] was 3110 nM (inactive) and the GI50 [54] was 216 nM (active). The GI50 [55] was 625 nM (active), the GI50 [56] was 3430 nM (inactive) and the GI50 [57] was 2050 nM (inactive). For the same compound, the GI50 [58] was 262 nM (active) and the GI50 [59] was 1850 nM (inactive).

With `CCCCCCCCC/C=C/C=C/C(=O)NCC(=O)NC1C(O)C(O)C(Nc2ncnc3[nH]cnc23)OC1C(O)CO` (stereo not drawn) the GI50 [1] was 2.42 nM (active), the GI50 [2] was 1.49 nM (active) and the GI50 [3] was 6.92 nM (active). For the same compound, the GI50 [4] was 4.13 nM (active), the GI50 [5] was 1 nM (active) and the GI50 [6] was 1.33 nM (active). The GI50 [7] was 4.32 nM (active), the GI50 [8] was 23 nM (active) and the GI50 [9] was 1.1 nM (active). For the same compound, the GI50 [10] was 2.17 nM (active), the GI50 [11] was 4.68 nM (active) and the GI50 [12] was 2.63 nM (active). For the same compound, the GI50 [13] was 4.6 nM (active), the GI50 [14] was 4.48 nM (active) and the GI50 [60] was 1 nM (active). The GI50 [15] was 25.5 nM (active), the GI50 [16] was 2.34 nM (active) and the GI50 [17] was 3.88 nM (active). For the same compound, the GI50 [61] was 1 nM (active), the GI50 [18] was 1.56 nM (active) and the GI50 [19] was 0.0488 nM (active). The GI50 [20] was 69.5 nM (active), the GI50 [21] was 14.3 nM (active) and the GI50 [22] was 1.8 nM (active). For the same compound, the GI50 [23] was 126 nM (active), the GI50 [24] was 0.601 nM (active) and the GI50 [25] was 1.96 nM (active). The GI50 [26] was 668 nM (active), the GI50 [27] was 0.509 nM (active) and the GI50 [28] was 7.96 nM (active). The GI50 [29] was 362 nM, the GI50 [62] was 55.1 nM (active) and the GI50 [30] was 169 nM (active). For the same compound, the GI50 [31] was 1.75 nM (active), the GI50 [32] was 5.6 nM (active) and the GI50 [33] was 21.1 nM (active). The GI50 [34] was 4.12 nM (active), the GI50 [35] was 4.68 nM (active) and the GI50 [36] was 1.15 nM (active). For the same compound, the GI50 [37] was 3.23 nM (active), the GI50 [38] was 4.01 nM (active) and the GI50 [39] was 3.97 nM (active). For the same compound, the GI50 [40] was 13.7 nM (active), the GI50 [41] was 53.8 nM (active) and the GI50 [42] was 63 nM (active). For the same compound, the GI50 [43] was 30.6 nM (active), the GI50 [44] was 9.53 nM (active) and the GI50 [45] was 5.07 nM (active). The GI50 [46] was < 10 nM (active), the GI50 [47] was 2390 nM (inactive) and the GI50 [48] was 1 nM (active). For the same compound, the GI50 [49] was 4.44 nM (active), the GI50 [50] was 1.89 nM (active) and the GI50 [51] was 1.74 nM (active). The GI50 [63] was 65.5 nM (active), the GI50 [52] was 8.69 nM (active) and the GI50 [53] was 0.23 nM (active). For the same compound, the GI50 [64] was 8.38 nM (active), the GI50 [54] was 5.32 nM (active) and the GI50 [55] was 158 nM (active). For the same compound, the GI50 [56] was 1.25 nM (active), the GI50 [57] was 2.08 nM (active) and the GI50 [65] was 1 nM (active). The GI50 [58] was 1.59 nM (active) and the GI50 [59] was 13.6 nM (active).

For `O=C1C=CC(=O)c2c1ccc1c3ccccc3n(CCCCCn3c4ccccc4c4ccc5c(c43)C(=O)C=CC5=O)c21`, the GI50 [1] was 16700 nM (inactive), the GI50 [2] was 20000 nM (inactive) and the GI50 [3] was 6980 nM (inactive). For the same compound, the GI50 [4] was 17700 nM (inactive), the GI50 [5] was 15200 nM (inactive) and the GI50 [6] was > 100000 nM (inactive). For the same compound, the GI50 [7] was 21200 nM (inactive), the GI50 [8] was 32400 nM (inactive) and the GI50 [9] was 32000 nM (inactive). The GI50 [10] was 6870 nM (inactive), the GI50 [11] was 54500 nM (inactive) and the GI50 [12] was > 100000 nM (inactive). For the same compound, the GI50 [13] was 20100 nM (inactive), the GI50 [14] was 16100 nM (inactive) and the GI50 [15] was 22000 nM (inactive). For the same compound, the GI50 [16] was 16000 nM (inactive), the GI50 [17] was > 55700 nM (inactive) and the GI50 [18] was 8170 nM (inactive). The GI50 [19] was 14700 nM (inactive), the GI50 [20] was 16400 nM (inactive) and the GI50 [21] was 15700 nM (inactive). For the same compound, the GI50 [22] was 4140 nM (inactive), the GI50 [23] was 33300 nM (inactive) and the GI50 [24] was 17900 nM (inactive). The GI50 [25] was 7870 nM (inactive), the GI50 [26] was 19700 nM (inactive) and the GI50 [27] was 33000 nM (inactive). The GI50 [28] was > 100000 nM (inactive), the GI50 [29] was 17200 nM and the GI50 [30] was 4810 nM (inactive). For the same compound, the GI50 [31] was 41200 nM (inactive), the GI50 [32] was 23300 nM (inactive) and the GI50 [33] was 1900 nM (inactive). The GI50 [34] was > 91400 nM (inactive), the GI50 [35] was 16500 nM (inactive) and the GI50 [36] was > 10000 nM (inactive). For the same compound, the GI50 [37] was 12800 nM (inactive), the GI50 [38] was 5680 nM (inactive) and the GI50 [39] was > 100000 nM (inactive). The GI50 [40] was 32400 nM (inactive), the GI50 [41] was 21200 nM (inactive) and the GI50 [42] was 2060 nM (inactive). The GI50 [43] was 20300 nM (inactive), the GI50 [44] was 15300 nM (inactive) and the GI50 [45] was 25700 nM (inactive). For the same compound, the GI50 [46] was 25600 nM (inactive), the GI50 [47] was 454 nM (active) and the GI50 [48] was > 100000 nM (inactive). For the same compound, the GI50 [49] was 16300 nM (inactive), the GI50 [50] was > 78000 nM (inactive) and the GI50 [51] was > 49500 nM (inactive). For the same compound, the GI50 [52] was 16000 nM (inactive), the GI50 [53] was 17100 nM (inactive) and the GI50 [54] was 2020 nM (inactive). For the same compound, the GI50 [55] was 1520 nM (inactive), the GI50 [56] was 14900 nM (inactive) and the GI50 [57] was 12400 nM (inactive). For the same compound, the GI50 [58] was 875 nM (active) and the GI50 [59] was 18400 nM (inactive).
